One assay concerns P. aeruginosa biofilms. The experiment in a line: Microtiter plate dispersion bioassay. It counts as cell-based, Pseudomonas aeruginosa PAO1. The method, then: Microtiter plate dispersion bioassays were used to test various preparations for their ability to exogenously induce biofilm dispersion. Biofilms were grown on the inside surface of microtiter plate wells using a semi-batch culture method in which the medium within each well was replaced periodically to reduce the accumulation of native dispersion inducing factors. Biofilms grown in this manner were treated with dispersion inducer or sterile medium to release cells into the bulk liquid and evaluate dispersed cell number by measuring optical density. Briefly, sterile polystyrene 96 well plates were etched with acetone for 10 seconds to create a rough surface for the attachment of microbial cells. After drying for 24 hours, plates were inoculated with 150 μL/well of overnight culture containing the test organism, previously diluted 1:20 in growth medium and incubated at 30° C. with shaking at 200 rpm. Medium in the wells was replaced every 24 hours for 5 days and every 12 hours on day 6 and day 7. Medium was then replaced after 7 hours. Dispersion induction was tested by adding 150 μL growth medium containing dispersion inducer for 1 hr at 30° C. or sterile medium as a control. Medium containing dispersed cells was then transferred by pipet to a non-etched microtiter plate and the optical density (OD570) was determined (ELx808 Absorbance Microplate Reader; BioTek Instruments, Inc., Winooski, Vt.). […] Note: Microtiter plate dispersion bioassays were not suitable for determining absolute magnitude of an induced dispersion response because in a semi-batch system, control and test samples are susceptible to natural dispersion against which the activity of exogenous induction is measured. All efficiency studies were performed using biofilm tube reactor or flow-cell continuous culture systems and were based on both total cell counts and viable cell counts.

For assay [1], the system named is biofilm cells of Staphylococcus aureus. To be noted: cited from earlier work.
Assay [2] deals with P. aeruginosa biofilm microcolonies. The experiment in a line: Microscopic analysis of mature biofilm in flow cell. It counts as cell-based, Pseudomonas aeruginosa. Here is the method: A continuous-culture once-through flow cell was configured to observe the growth and development of biofilms attached to a glass substratum. The flow cell was constructed of aluminum containing a chamber 1.0 mm by 1.4 cm by 4.0 cm capped with a glass cover slip. Sterile modified EPRI medium was pumped from a 10-liter vessel through silicone tubing to the flow cell using a Masterflex 8-roller-head peristaltic pump at a flow rate of 0.13 mL/min. Flow through the chamber was laminar, with a Reynolds number of 0.17, having a fluid residence time of 4.3 min. Medium leaving the flow cell was discharged to an effluent reservoir via silicone tubing. The entire system was closed to the outside environment but maintained in equilibrium with atmospheric pressure by a 0.2-μm-pore-size gas-permeable filter fitted to each vessel. […] Each cell cluster was measured to determine its height by focusing from the substratum through to the apex of the cluster, and its width by measurement at the base of the cell cluster using a stage micrometer. Cell clusters were defined as cells embedded within an exopolysaccharide matrix attached to the substratum and lacking motility; void areas within cell clusters were determined by the observation of free-swimming bacteria within a space inside a cell cluster. […]

Molecules are shown by their SMILES.

On to `CC(C)CCCCCCC/C=C\C(=O)O` [DSF, reference compound], for which, in the assay with P. aeruginosa biofilms, the “promotion of dispersion of P. aeruginosa” value is given as “shown not to promote dispersion”.

Regarding `OCl` [chlorine, sodium hypochlorite], the “increase in concentration required to kill biofilm cells compared to planktonic cells” value in assay [1] was 600 fold.

In the case of `CCCCCCC/C=C\C(=O)O` [cis-2-decenoic acid], the “dispersion activity compared to un-concentrated spent culture medium” value in the assay with P. aeruginosa biofilms (1.0 nanomolar) is listed as “greater dispersion activity at 1.0 nanomolar than un-concentrated spent culture medium”. In addition, the “time at which microcolony disaggregation begins” value in assay [2] (10 μM added to mature biofilm in flow cell) is given as 11 min. Further, the “effect on biofilm microcolony by microscopy” value in assay [2] (FIG. 13) was “completely disrupting a biofilm microcolony”.

On to `CCCCCCC/C=C/C(=O)O` [trans-2-decenoic acid], for which the “concentration range with dispersion activity” value in the assay with P. aeruginosa biofilms (biofilm cultures grown in microtiter plates) is “activity only at millimolar concentrations”.

These data come from patent publication US11452291B2, “Induction of a physiological dispersion response in bacterial cells in a biofilm” (The Research Foundation for The State University of New York, priority 2007, dated 2022).
